The source of these data is patent publication US20230117470A1, “SUBSTITUTED PYRAZOLE COMPOUNDS AS TOLL RECEPTOR INHIBITORS” (BRISTOL-MYERS SQUIBB COMPANY, priority 2019, published 2023).

What all share (format): cell-based
Test [1] concerns the target T1, human TLR7 (Homo sapiens, UniProt Q9NYK1).
T1 construct: host or cells: HEK-Blue cells
T1 sequence (Q9NYK1 27-1049): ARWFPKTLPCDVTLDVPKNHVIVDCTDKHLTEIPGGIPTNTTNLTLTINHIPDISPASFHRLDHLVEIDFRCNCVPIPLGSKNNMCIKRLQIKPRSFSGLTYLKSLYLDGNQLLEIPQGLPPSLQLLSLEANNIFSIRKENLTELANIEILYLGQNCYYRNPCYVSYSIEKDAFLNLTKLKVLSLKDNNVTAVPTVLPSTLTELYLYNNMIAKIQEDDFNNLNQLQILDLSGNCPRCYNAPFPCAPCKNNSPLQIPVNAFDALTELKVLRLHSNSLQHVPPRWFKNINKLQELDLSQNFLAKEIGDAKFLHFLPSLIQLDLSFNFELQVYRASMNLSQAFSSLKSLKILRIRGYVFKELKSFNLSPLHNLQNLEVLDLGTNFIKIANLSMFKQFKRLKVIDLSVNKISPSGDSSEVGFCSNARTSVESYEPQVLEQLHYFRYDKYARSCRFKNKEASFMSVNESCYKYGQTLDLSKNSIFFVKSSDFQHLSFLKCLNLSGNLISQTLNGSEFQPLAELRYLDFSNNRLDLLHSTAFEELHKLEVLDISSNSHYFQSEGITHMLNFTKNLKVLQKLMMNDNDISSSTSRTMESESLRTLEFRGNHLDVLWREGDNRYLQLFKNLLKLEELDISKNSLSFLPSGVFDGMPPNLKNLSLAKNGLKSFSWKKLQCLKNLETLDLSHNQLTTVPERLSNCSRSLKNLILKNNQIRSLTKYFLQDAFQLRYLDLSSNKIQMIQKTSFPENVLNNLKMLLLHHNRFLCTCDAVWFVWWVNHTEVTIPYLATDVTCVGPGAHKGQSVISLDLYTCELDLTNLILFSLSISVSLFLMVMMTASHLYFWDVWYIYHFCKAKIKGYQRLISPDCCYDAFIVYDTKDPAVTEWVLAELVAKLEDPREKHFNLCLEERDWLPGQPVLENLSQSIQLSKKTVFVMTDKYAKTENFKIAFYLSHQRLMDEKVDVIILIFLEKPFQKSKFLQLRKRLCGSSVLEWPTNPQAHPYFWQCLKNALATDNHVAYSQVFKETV
As to the kind of experiment: TLR7 inhibition reporter assay (HEK-Blue cells, SEAP reporter, gardiquimod stimulation). The note with it: HEK-Blue cells overexpressing human TLR7, SEAP reporter, gardiquimod 7.5 μM. The method, boiled down: (§1)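 HEK-Blue cells overexpressing human TLR7, TLR8 or TLR9, with an NF-κB/AP-1-driven SEAP reporter, pre-treated 30 min at room temperature with compound (0.05 nM-50 μM final). Stimulated with 7.5 μM gardiquimod (TLR7), 15.9 μM R848 (TLR8) or 5 nM ODN2006 (TLR9), then 22 h at 37° C. SEAP read with HEK-Blue Detection; % inhibition set against agonist+DMSO and known-inhibitor wells.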

The target of test [2] is T2, human TLR8 (Homo sapiens, UniProt Q9NR97).
T2 construct: host or cells: HEK-Blue cells
T2 sequence (Q9NR97 27-1041): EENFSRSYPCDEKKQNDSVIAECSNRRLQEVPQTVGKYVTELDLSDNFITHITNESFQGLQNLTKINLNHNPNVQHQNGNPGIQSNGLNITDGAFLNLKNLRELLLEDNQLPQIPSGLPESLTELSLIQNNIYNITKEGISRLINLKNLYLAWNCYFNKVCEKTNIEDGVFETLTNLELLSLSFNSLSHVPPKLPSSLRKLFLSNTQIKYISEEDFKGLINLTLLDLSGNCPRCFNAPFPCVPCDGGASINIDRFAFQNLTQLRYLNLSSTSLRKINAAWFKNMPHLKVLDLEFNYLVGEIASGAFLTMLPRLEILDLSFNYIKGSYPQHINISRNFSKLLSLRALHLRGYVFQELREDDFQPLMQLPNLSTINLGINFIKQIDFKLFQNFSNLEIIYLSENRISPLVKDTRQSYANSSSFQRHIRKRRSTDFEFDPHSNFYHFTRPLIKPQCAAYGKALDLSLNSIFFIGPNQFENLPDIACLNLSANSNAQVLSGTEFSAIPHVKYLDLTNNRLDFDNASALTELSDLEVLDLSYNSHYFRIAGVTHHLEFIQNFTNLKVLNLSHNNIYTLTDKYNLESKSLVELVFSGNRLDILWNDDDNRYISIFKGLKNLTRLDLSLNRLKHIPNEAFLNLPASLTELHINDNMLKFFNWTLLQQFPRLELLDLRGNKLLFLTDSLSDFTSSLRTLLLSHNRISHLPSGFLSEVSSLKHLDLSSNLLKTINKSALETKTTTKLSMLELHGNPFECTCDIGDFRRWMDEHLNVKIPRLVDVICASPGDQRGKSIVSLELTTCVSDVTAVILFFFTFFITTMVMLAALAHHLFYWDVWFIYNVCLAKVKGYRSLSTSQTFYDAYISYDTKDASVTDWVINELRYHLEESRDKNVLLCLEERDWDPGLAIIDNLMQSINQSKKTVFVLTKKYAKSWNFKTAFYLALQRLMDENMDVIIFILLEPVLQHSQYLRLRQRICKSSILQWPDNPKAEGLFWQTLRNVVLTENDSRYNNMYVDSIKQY
As to the kind of experiment: TLR8 inhibition reporter assay (HEK-Blue cells, SEAP reporter, R848 stimulation). To be noted: HEK-Blue cells overexpressing human TLR8, SEAP reporter, R848 15.9 μM. The method, boiled down:
as §1
On the technique in general: A reporter such as luciferase makes a cellular process visible.

For test [3], the target named is T3, human TLR9 (Homo sapiens, UniProt Q9NR96).
T3 construct: host or cells: HEK-Blue cells
T3 sequence (Q9NR96 26-1032): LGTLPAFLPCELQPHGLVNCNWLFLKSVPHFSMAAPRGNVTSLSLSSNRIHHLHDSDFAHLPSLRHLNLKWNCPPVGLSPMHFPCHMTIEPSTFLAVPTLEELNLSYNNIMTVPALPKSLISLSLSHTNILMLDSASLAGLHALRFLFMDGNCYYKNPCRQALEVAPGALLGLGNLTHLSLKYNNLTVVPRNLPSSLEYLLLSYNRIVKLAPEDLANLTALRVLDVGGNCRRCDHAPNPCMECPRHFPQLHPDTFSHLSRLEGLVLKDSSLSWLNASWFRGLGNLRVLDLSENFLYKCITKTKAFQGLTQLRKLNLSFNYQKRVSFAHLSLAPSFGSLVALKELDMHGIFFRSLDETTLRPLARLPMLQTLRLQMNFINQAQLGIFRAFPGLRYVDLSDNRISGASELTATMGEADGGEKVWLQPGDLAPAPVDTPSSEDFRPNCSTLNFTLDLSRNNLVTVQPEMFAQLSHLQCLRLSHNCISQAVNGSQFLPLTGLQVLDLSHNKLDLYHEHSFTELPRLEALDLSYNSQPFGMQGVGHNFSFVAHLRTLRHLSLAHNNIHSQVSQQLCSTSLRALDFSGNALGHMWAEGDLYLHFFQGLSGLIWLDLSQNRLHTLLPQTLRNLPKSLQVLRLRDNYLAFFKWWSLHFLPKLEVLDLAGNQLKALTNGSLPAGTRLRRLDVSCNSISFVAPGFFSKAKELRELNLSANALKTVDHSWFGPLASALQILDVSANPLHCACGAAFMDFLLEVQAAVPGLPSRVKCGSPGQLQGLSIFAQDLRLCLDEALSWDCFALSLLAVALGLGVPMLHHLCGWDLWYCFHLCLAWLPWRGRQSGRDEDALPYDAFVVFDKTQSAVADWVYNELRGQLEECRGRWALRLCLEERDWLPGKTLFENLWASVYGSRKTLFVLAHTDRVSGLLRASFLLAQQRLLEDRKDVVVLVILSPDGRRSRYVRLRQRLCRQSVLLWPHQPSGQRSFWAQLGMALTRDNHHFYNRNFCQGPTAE
Description: TLR9 inhibition reporter assay (HEK-Blue cells, SEAP reporter, ODN2006 stimulation). To be noted: HEK-Blue cells overexpressing human TLR9, SEAP reporter, ODN2006 5 nM. Put shortly: as §1

One may read the IC50 as the concentration that gives 50% inhibition. On to `COc1cc(-c2[nH]nc(-c3cnc(C4CCN(CCS(C)(=O)=O)CC4)cn3)c2C(C)C)cn2ncnc12` [Example 397], for which the concentration for half-maximal inhibition (IC50) is 221 nM in test [1], 463 nM in test [2] and above 50000 nM in test [3].
Regarding `Cc1c(C(=O)NC2CCN(C(C)C)CC2)n[nH]c1-c1cc(C)c2ncnn2c1` [Example 179, N-(1-isopropylpiperidin-4-yl)-4-methyl-5-(8-methyl-[1,2,4]triazolo[1,5-a]pyridin-6-yl)-1H-pyrazole-3-carboxamide], the values for the half-maximal inhibitory concentration (IC50) in test [1], in test [2] and in test [3] were 9.72 nM, 13.5 nM and 7260 nM, respectively.
The matching figures for `CCC(C)N1CCC(NC(=O)c2n[nH]c(-c3cc(C)c4ncnn4c3)c2C(C)C)CC1` (stereo not drawn) [Example 152]: 13.7 nM, 31.6 nM and 20900 nM.
The matching figures for `Cc1cc(-c2[nH]nc(C(=O)N[C@H]3CC[C@H](NCC4CCOC4)CC3)c2C(C)C)cn2ncnc12` (stereo partly drawn) [Example 105]: 1.38 nM, 43.2 nM and 2180 nM.
Taken in the same sequence, the figures for `COc1ncc(CN2CCC(NC(=O)c3n[nH]c(-c4cc(C)c5ncnn5c4)c3C(C)C)CC2)cn1` [Example 157] were 37.4 nM, 11.9 nM and 16400 nM.
With `Cc1cc(-c2[nH]nc(C(=O)NC3CCN(C(C)C)CC3)c2C(C)C)ccn1` [Example 38], the values for the IC50 in test [1], in test [2] and in test [3] were 7.93 nM, 4.43 nM and 2280 nM, respectively.
On to `Cc1cc(-c2[nH]nc(C(=O)NC3CCN(CCC(C)C)CC3)c2C(C)C)cn2ncnc12` [Example 76], for which the 50% inhibitory concentration (IC50) in test [1] turned out to be 0.9 nM; in test [2], 2.62 nM; in test [3], 1450 nM.
For `COc1ccc(-c2[nH]nc(C(=O)NC3CCN(C(C)C)CC3)c2C(C)C)cc1OC` [Example 34], the IC50 in test [1] is 4.44 nM; in test [2], 4.94 nM; in test [3], above 50000 nM.
On to `Cc1cc(-c2[nH]nc(-c3cnc(NC(C)C)cn3)c2C(C)C)cn2ncnc12` [Example 241], for which the IC50 was 8.06 nM in test [1], 3.19 nM in test [2] and above 50000 nM in test [3].
Taken in the same sequence, the figures for `Cc1cc(-c2[nH]nc(C(=O)NC3CCC(NC4(C)COC4)CC3)c2C(C)C)cn2ncnc12` (stereo not drawn) [Example 124] were 7.72 nM, 31.5 nM and 28600 nM.
The matching figures for `COc1cc(-c2[nH]nc(-c3cnc(C4CCN(C5CCC5)CC4)cn3)c2C(C)C)cn2ncnc12` [Example 387]: 25.2 nM, 43.9 nM and 11500 nM.
Taken in the same sequence, the figures for `Cc1cc(-c2[nH]nc(C(=O)N[C@H]3CC[C@H](NCC4CCCC4)CC3)c2C(C)C)cn2ncnc12` [Example 109] were 6.81 nM, 27.9 nM and 6090 nM.
Consider `Cc1cc(-c2[nH]nc(C(=O)N[C@H]3CC[C@@H](N(C)C)CC3)c2C(C)C)cn2ncnc12` [Example 84], for which the half-maximal inhibitory concentration (IC50) was determined as 0.9 nM in test [1], 0.84 nM in test [2] and 9110 nM in test [3].
Taken in the same sequence, the figures for `Cc1cc(-c2[nH]nc(C(=O)NC3CCN(CC4CCOCC4)CC3)c2C(C)C)cn2ncnc12` [Example 77] were 2.03 nM, 21.5 nM and 3270 nM.
Take `Cc1cc(-c2[nH]nc(C(=O)NC3CCCNC3)c2C(C)C)cn2ncnc12` (stereo not drawn) [Example 67]: the IC50 in test [1] was 12.6 nM; in test [2], 12.9 nM; in test [3], 2250 nM.
The matching figures for `COc1cc(-c2[nH]nc(-c3ccc(C4CCN(CC(C)(C)O)CC4)cn3)c2C(C)C)cn2ncnc12` [Example 391]: 102 nM, 118 nM and above 50000 nM.
Taken in the same sequence, the figures for `COc1cc(-c2[nH]nc(C(=O)N(C)C3CCN(C)CC3)c2C(C)C)cn2ncnc12` [Example 9] were above 3130 nM, above 3130 nM and 4160 nM.
The matching figures for `CCC(CC)CN[C@H]1CC[C@H](NC(=O)c2n[nH]c(-c3cc(C)c4ncnn4c3)c2C(C)C)CC1` [Example 110]: 2.21 nM, 0.93 nM and 5780 nM.
Regarding `COCC(C)N[C@H]1CC[C@@H](NC(=O)c2n[nH]c(-c3cc(C)c4ncnn4c3)c2C(C)C)CC1` (stereo partly drawn) [Example 147], the figures for the IC50 in test [1], in test [2] and in test [3] were 90.1 nM, 5.67 nM and 18800 nM, respectively.
Taken in the same sequence, the figures for `Cc1cc(-c2[nH]nc(C(=O)N(C)C3CCN(C)C3)c2C(C)C)cn2ncnc12` (stereo not drawn) [Example 25] were 25.6 nM, 10.3 nM and 447 nM.
The matching figures for `Cc1cc(-c2[nH]nc(C(=O)NCC3CN(C4COC4)CCO3)c2C(C)C)cn2ncnc12` (stereo not drawn) [Example 136]: 1.69 nM, 4.36 nM and 42800 nM.
